In patent US7713994B2 (Wyeth LLC, priority 2005, dated 2010) one finds IC50 and melting point data, which are given here for six compounds.

One data set deals with MCF-7. In words: Cytotoxicity assay (SRB), MCF-7. As to conditions: Homo sapiens, MCF7, 72 h, MCF-7 cells, SRB, read-out: In Vitro Cellular Activity IC50 MCF-7. It is filed as cell-based. The method, boiled down: (§1)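 Protein staining with sulforhodamine B after cold TCA fixation served as the survival endpoint (A540, relative to untreated cells). Before staining, cells were incubated with compound at 37 °C, 7% CO2 for 3 days, or 6 days for BT474.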

A further data set addresses T1, cyclin B/CDK1 enzyme (Homo sapiens, UniProt P06493).
T1 construct: purchased New England BioLabs; host or cells: Sf9 insect cells, recombinant baculovirus
In words: CDK1 ELISA kinase assay (phospho-Rb ser 795 detection). It is filed as biochemical. The method, boiled down:
(§2)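 GST-Rb C-terminal fragment coated on wells; kinase reaction: 200 μM ATP, 0.5 mg/ml BSA, HEPES pH 7.5, 10 mM MgCl2, baculovirus/Sf9 cyclin-CDK, 30° C, 1 h. Readout anti-phospho-Rb Ser795, HRP, TMB, A450. Test compound 10 ug/ml final.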

The subject of the next data set is HCT-116. Nature of the data set: Cytotoxicity assay (SRB), HCT-116. As to conditions: Homo sapiens, HCT-116, 72 h, HCT116 cells, SRB, read-out: In Vitro Cellular Activity IC50 HCT116. The data set is classed as cell-based. The method in brief:
as §1

In a further data set the target is T2, cyclin E/CDK2 enzyme (Homo sapiens, UniProt P24941).
T2 construct: made in house; host or cells: Sf9 insect cells, recombinant baculovirus
In words: CDK2 ELISA kinase assay (phospho-Rb ser 795 detection). The data set is classed as biochemical. The method, boiled down:
as §2

Another data set relates to BT474. Nature of the data set: Cytotoxicity assay (SRB), BT474. It is filed as cell-based. The method, boiled down:
as §1

The next data set deals with LoVo. In words: Cytotoxicity assay (SRB), LoVo. The data set is classed as cell-based. As to conditions: Homo sapiens, LoVo, 72 h, LoVo cells, SRB, read-out: In Vitro Cellular Activity IC50 LOVO. The method in brief:
as §1

The next data set has as its target T3, Cyclin D1/CDK6 (Homo sapiens, UniProt Q00534).
T3 construct: made in house; host or cells: Sf9 insect cells, recombinant baculovirus
Nature of the data set: Cyclin D1/CDK6 Elisa. The data set is classed as biochemical. The following applies: 200 μM ATP. As to the method: Cyclin D1/CDK6 was expressed in insect cells (Sf9) infected with recombinant baculovirus and partially purified using ammonium sulfate fractionation. Test compounds were diluted in 20% DMSO/20 mM HEPES, pH 7.5 and serial dilutions were prepared (5 concentrations; 0.005-50 µM). High-binding ELISA microtiter plates (Costar) were coated with the kinase substrate (glutathione-S-transferase (GST) fusion of C-terminal fragment of the retinoblastoma susceptibility gene product (Rb). Non-specific binding sites were blocked with Superblock in Tris-buffered saline (TBS; Pierce). Kinase reactions contained the test inhibitor, 200 μM ATP, 0.5 mg/ml bovine serum albumin (BSA; Sigma), and 0.1 μl cyclin D1/cdk 6. Reaction volumes were adjusted to 30 μl with kinase assay buffer (50 mM HEPES, pH 7.5, 10 mM MgCl2, 5% glycerol, 10 mM 2-mercaptoethanol), and plates were incubated at 30° C. for 1 hour. Reactions were terminated by aspiration, and non-specific sites were blocked with blocking buffer (TBS containing 0.1% Tween-20 and 5% nonfat dry milk). Phoshporylation of the substrate was detected using phospho-Rb specific antibodies (ser-795) (Cell Signalling Technologies) and anti-rabbit IgG/horseradish peroxidase conjugates (Amersham Life Science) using TMB as substrate. Colourimetric reactions were stopped with 2N sulphuric acid and the absorbance was measured at 450 nm (Molecular Devices). IC50 values were determined from inhibition plots.

For the next data set, the target named is T4, cyclin D1/cdk 4 enzyme (Homo sapiens, UniProt P11802).
T4 construct: made in house; host or cells: Sf9 insect cells, recombinant baculovirus
T4 sequence (P11802 whole entry, species assumed): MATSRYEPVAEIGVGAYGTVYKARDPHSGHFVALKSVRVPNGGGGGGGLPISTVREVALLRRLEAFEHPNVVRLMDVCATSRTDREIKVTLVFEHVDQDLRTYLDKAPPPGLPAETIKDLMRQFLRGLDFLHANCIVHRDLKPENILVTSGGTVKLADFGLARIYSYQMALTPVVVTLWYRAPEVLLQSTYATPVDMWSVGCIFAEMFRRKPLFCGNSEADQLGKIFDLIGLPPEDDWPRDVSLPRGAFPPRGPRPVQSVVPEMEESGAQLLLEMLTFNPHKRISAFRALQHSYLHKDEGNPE
T4 sequence (P24385 whole entry partner, species assumed): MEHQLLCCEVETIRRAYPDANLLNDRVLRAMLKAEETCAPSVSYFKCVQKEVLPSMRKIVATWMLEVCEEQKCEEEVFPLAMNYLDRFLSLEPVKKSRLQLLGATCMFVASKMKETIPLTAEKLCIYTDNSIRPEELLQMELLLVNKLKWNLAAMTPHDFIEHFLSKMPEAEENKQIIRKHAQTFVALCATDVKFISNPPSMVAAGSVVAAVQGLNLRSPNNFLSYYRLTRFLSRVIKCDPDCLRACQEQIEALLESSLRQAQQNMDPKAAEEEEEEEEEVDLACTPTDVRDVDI
In words: CDK4 ELISA kinase assay (phospho-Rb ser 795 detection). It is filed as biochemical. The method in brief:
as §2

The test system of the next data set is SK-Br-3. Nature of the data set: Cytotoxicity assay (SRB), SK-Br-3. The data set is classed as cell-based. The following applies: Homo sapiens; SK-Br-3 cells; read-out: In Vitro Cellular Activity IC50 SK-Br-3.
Another data set relates to SK-UT-1B. In words: Cytotoxicity assay (SRB), SK-UT-1B. The data set is classed as cell-based. As to conditions: Homo sapiens, Skut1B; SK-UT-1B cells; read-out: In Vitro Cellular Activity IC50 SK-UT-1B.
Setting [1] is: In Vitro Enzyme Assays, read-out: CDK1 IC50.
Setting [2] is: In Vitro Enzyme Assays, read-out: CDK2 IC50.
The mark [3] stands for this setting: Homo sapiens, BT-474, 144 h, BT474 cells, SRB, 6 days; read-out: In Vitro Cellular Activity IC50 BT474.
The mark [4] stands for this setting: In Vitro Enzyme Assays, 200 μM ATP, read-out: CDK4 IC50.
Setting [5] is: In Vitro Enzyme Assay, cyclin B/CDK1, read-out: CDK1 IC50.
The mark [6] stands for this setting: In Vitro Enzyme Assay, cyclin E/CDK2, read-out: CDK2 IC50.
Setting [7] is: Homo sapiens, BT-474, 144 h, BT474 cells, 6 days, SRB; read-out: In Vitro Cellular Activity IC50 BT474.
Setting [8] is: In Vitro Enzyme Assay, cyclin D1/cdk 4, read-out: CDK4 IC50.

Like-named read-outs stand apart in the source and are kept apart here.

T1 sequence (P06493 whole entry): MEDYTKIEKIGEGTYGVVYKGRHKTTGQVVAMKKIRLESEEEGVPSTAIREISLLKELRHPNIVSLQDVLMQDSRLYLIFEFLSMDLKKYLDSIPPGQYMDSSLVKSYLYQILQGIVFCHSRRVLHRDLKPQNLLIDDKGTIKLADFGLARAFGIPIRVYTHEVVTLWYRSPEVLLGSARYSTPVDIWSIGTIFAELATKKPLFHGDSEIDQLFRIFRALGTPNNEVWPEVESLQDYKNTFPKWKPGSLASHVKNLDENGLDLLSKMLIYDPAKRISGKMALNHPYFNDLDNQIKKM
T1 sequence (P14635 whole entry partner): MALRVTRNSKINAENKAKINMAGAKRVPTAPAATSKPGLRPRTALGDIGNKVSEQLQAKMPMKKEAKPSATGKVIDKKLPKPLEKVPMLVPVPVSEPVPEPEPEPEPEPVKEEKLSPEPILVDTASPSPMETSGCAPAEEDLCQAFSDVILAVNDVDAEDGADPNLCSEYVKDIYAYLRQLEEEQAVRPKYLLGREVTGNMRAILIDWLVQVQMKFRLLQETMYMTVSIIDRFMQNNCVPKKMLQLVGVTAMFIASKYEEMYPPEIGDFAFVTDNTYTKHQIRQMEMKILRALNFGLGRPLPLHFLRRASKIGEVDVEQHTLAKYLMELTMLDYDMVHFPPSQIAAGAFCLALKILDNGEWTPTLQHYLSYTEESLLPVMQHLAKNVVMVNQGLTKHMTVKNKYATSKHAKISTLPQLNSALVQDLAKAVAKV
T3 sequence (Q00534 whole entry, species assumed): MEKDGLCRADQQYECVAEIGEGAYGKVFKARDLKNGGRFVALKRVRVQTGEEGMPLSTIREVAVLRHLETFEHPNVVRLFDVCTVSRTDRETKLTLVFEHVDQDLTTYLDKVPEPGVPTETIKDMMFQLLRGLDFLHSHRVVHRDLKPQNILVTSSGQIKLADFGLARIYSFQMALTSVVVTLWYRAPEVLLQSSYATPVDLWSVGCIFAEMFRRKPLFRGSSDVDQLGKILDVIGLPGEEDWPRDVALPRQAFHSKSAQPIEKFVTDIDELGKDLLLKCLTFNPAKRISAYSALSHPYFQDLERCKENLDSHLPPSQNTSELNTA
T3 sequence (P24385 whole entry partner, species assumed): as the sequence (P24385 whole entry partner, species assumed) above

`O=C1NC(=O)c2ccc(I)cc2/C1=C/Nc1ccc(CN2CCCCC2)cc1` [Example 82, (4Z)-6-Iodo-4-({[4-(piperidin-1-ylmethyl)phenyl]amino}methylene)isoquinoline-1,3(2H,4H)-dione]: the melting point was in the range of 202 to 203 °C. Besides, the IC50 in the data set with MCF-7 (three days) was 1 µM. For the same compound, on cyclin B/CDK1 enzyme (setting [1]), the IC50 was over 50 µM. Besides, the IC50 in the data set on HCT-116 (three days) is 2.7 µM. Besides, the IC50 on cyclin E/CDK2 enzyme (setting [2]) worked out at 20.4 µM. Also, the IC50 in the data set on BT474 (setting [3]) turned out to be 0.6 µM. Also, the 50% inhibitory concentration (IC50) with LoVo (three days) was 3.1 µM. Further, the midpoint of inhibition at Cyclin D1/CDK6, the IC50, lay at 0.03 µM. At cyclin D1/cdk 4 enzyme (setting [4]), the IC50 was 0.3 µM.
Compound `COc1ccc(CN/C=C2\C(=O)NC(=O)c3cccc(Br)c32)cc1O` [Example 84, (4Z)-5-Bromo-4-{[(3-hydroxy-4-methoxybenzyl)amino]methylene}isoquinoline-1,3(2H,4H)-dione] had a melting point of 204 to 206 °C. The IC50 in the data set with MCF-7 (three days) is 6.7 µM. Also, on cyclin B/CDK1 enzyme (setting [1]), the IC50 came to 8.1 µM. Also, the IC50 in the data set with HCT-116 (three days) was determined as 3.1 µM. Besides, the IC50 at cyclin E/CDK2 enzyme (setting [2]) amounted to 3.1 µM. In the data set with BT474 (setting [3]), the IC50 is 2.1 µM. For the same compound, in the data set with LoVo (three days), the IC50 is 4.6 µM. At Cyclin D1/CDK6, this compound had an IC50 of 0.07 µM. Besides, the IC50 on cyclin D1/cdk 4 enzyme (setting [4]) turned out to be 0.94 µM.
With `COc1cc(CN/C=C2\C(=O)NC(=O)c3ccc(-c4ccccc4)cc32)cc(O)c1OC` [Example 86], the melting point was in the range of 250 to 251 °C. Further, the IC50 in the data set with MCF-7 (three days) turned out to be 5.1 µM. On cyclin B/CDK1 enzyme (setting [1]), the IC50 is over 50 µM. The IC50 in the data set with HCT-116 (three days) worked out at 4.5 µM. In addition, on cyclin E/CDK2 enzyme (setting [2]), the IC50 is over 50 µM. Also, the IC50 with BT474 (setting [3]) was found to be 3.2 µM. Further, the IC50 in the data set with LoVo (three days) worked out at 3.7 µM. Moreover, inhibition at Cyclin D1/CDK6 was half-maximal at 0.001 µM (IC50). At cyclin D1/cdk 4 enzyme (setting [4]), the IC50 amounted to 0.002 µM.
As to `Nc1ccc(NC=C2C(=O)NC(=O)c3ccccc32)cc1` [Example 545, 4-[(4-Amino-phenylamino)-methylene]-4H-isoquinoline-1,3-dione], the IC50 in the data set with MCF-7 (3 days) is over 50 µM; at cyclin B/CDK1 enzyme (setting [5]), over 50 µM; with HCT-116 (3 days) it was 40.1 µM; in the data set on SK-Br-3, over 50 µM; on cyclin E/CDK2 enzyme (setting [6]) it was 2.5 µM; with BT474 (setting [7]) it was over 50 µM. Besides, the IC50 was over 50 µM in the data set with LoVo (3 days), 17.9 µM on cyclin D1/cdk 4 enzyme (setting [8]) and 38.9 µM with SK-UT-1B.
On to `O=C1NC(=O)c2ccccc2/C1=C/NCc1ccc(O)c(O)c1` [Example 550, 4-[(3,4-Dihydroxy-benzylamino)-methylene]-4H-isoquinoline-1,3-dione], for which the IC50 amounted to 39.1 µM in the data set on MCF-7 (3 days); 26.6 µM with HCT-116 (3 days); 32.4 µM in the data set on SK-Br-3; 12.5 µM at cyclin E/CDK2 enzyme (setting [6]); 36.5 µM in the data set on BT474 (setting [7]); 46.5 µM in the data set on LoVo (3 days). In addition, the IC50 in the data set with SK-UT-1B turned out to be 17.3 µM.
With `O=C1NC(=O)c2ccccc2C1=CNc1ccc(O)c2ncccc12` [Example 569, 4-[(8-Hydroxy-quinolin-5-ylamino)-methylene]-4H-isoquinoline-1,3-dione], the IC50 in the data set on MCF-7 (3 days) came to 7.2 µM; on cyclin B/CDK1 enzyme (setting [5]), 34.8 µM; in the data set on HCT-116 (3 days), 7.1 µM; in the data set on SK-Br-3, 8.9 µM; at cyclin E/CDK2 enzyme (setting [6]), 6.2 µM; with BT474 (setting [7]) it was 14.1 µM. Also, the IC50 in the data set with LoVo (3 days) is over 50 µM; on cyclin D1/cdk 4 enzyme (setting [8]), 11.2 µM; in the data set with SK-UT-1B, 2.2 µM.
